The record followed here is ChEMBL document CHEMBL1123145, “Synthesis of pyrrolizidine alkaloids indicine, intermedine, lycopsamine, and analogues and their N-oxides. Potential antitumor agents” (1985).

What all share (format): functional, Mus musculus
Assay [1] relates to P388. As to the kind of experiment: Number of Survivors determined for antitumor activity against P388 Lymphocytic Leukemia system on day 5 at a dose of 17.5 mg/kg (6 out of 6).
Assay [2] deals with P388. Description: Weight difference observed in survivors treated for antitumor activity against P388 Lymphocytic Leukemia system at a dose of 8.75 mg/kg.
Assay [3] concerns P388. Description: Survival rate of the animals determined for antitumor activity against P388 Lymphocytic Leukemia system at a dose of 17.5 mg/kg.
For assay [4], the system named is P388. As to the kind of experiment: Survival rate of the animals determined for antitumor activity against P388 Lymphocytic Leukemia system at a dose of 35 mg/kg.
The subject of assay [5] is P388. As to the kind of experiment: Number of Survivors determined for antitumor activity against P388 Lymphocytic Leukemia system on day 5 at a dose of 35 mg/kg (6 out of 6).
Assay [6] deals with P388. Description: Number of Survivors determined for antitumor activity against P388 Lymphocytic Leukemia system on day 5 at a dose of 70 mg/kg(6 out of 6).
Assay [7] deals with P388. As to the kind of experiment: Number of Survivors determined for antitumor activity against P388 Lymphocytic Leukemia system on day 5 at a dose of 8.75 mg/kg(6 out of 6).
Assay [8] concerns P388. As to the kind of experiment: Survival rate of the animals determined for antitumor activity against P388 Lymphocytic Leukemia system at a dose of 70 mg/kg.
Assay [9] has as its system P388. Description: Survival rate of the animals determined for antitumor activity against P388 Lymphocytic Leukemia system at a dose of 8.75 mg/kg.
The subject of assay [10] is P388. Description: Weight difference observed in survivors treated for antitumor activity against P388 Lymphocytic Leukemia system at a dose of 35 mg/kg.
Assay [11] relates to P388. Description: Weight difference observed in survivors treated for antitumor activity against P388 Lymphocytic Leukemia system at a dose of 70 mg/kg.
Assay [12] has as its system P388. Description: Weight difference observed in survivors treated for antitumor activity against P388 Lymphocytic Leukemia system at a dose of 17.5 mg/kg.
In assay [13] the test system is P388. As to the kind of experiment: Number of Survivors determined for antitumor activity against P388 Lymphocytic Leukemia system on day 5 at a dose of 192 mg/kg (6 out of 6).
Assay [14] has as its system P388. As to the kind of experiment: Number of Survivors determined for antitumor activity against P388 Lymphocytic Leukemia system on day 5 at a dose of 24 mg/kg (6 out of 6).
For assay [15], the system named is P388. Description: Survival rate of the animals determined for antitumor activity against P388 Lymphocytic Leukemia system at a dose of 192 mg/kg.
For assay [16], the system named is P388. Description: Survival rate of the animals determined for antitumor activity against P388 Lymphocytic Leukemia system at a dose of 24 mg/kg.
Assay [17] deals with P388. Description: Number of Survivors determined for antitumor activity against P388 Lymphocytic Leukemia system on day 5 at a dose of 48 mg/kg (6 out of 6).
For assay [18], the system named is P388. As to the kind of experiment: Weight difference observed in survivors treated for antitumor activity against P388 Lymphocytic Leukemia system at a dose of 192 mg/kg.
Assay [19] has as its system P388. As to the kind of experiment: Weight difference observed in survivors treated for antitumor activity against P388 Lymphocytic Leukemia system at a dose of 96 mg/kg.
In assay [20] the test system is P388. As to the kind of experiment: Survival rate of the animals determined for antitumor activity against P388 Lymphocytic Leukemia system at a dose of 48 mg/kg.
Assay [21] has as its system P388. Description: Weight difference observed in survivors treated for antitumor activity against P388 Lymphocytic Leukemia system at a dose of 24 mg/kg.
The subject of assay [22] is P388. As to the kind of experiment: Weight difference observed in survivors treated for antitumor activity against P388 Lymphocytic Leukemia system at a dose of 48 mg/kg.
The test system of assay [23] is P388. As to the kind of experiment: Number of Survivors determined for antitumor activity against P388 Lymphocytic Leukemia system on day 5 at a dose of 96 mg/kg(6 out of 6).
Assay [24] relates to P388. As to the kind of experiment: Survival rate of the animals determined for antitumor activity against P388 Lymphocytic Leukemia system at a dose of 96 mg/kg.

For `O=C(OCC1=CC[N+]2([O-])CC[C@@H](O)C12)c1ccccc1` (some centres undefined), the Survivors in the assay with P388 [1], in the assay on P388 [5], with P388 [6] and in the assay with P388 [7] was 6 each time. Besides, the T-C is -0.4 in the assay on P388 [2], -0.1 with P388 [10], -1 with P388 [11] and -0.7 in the assay on P388 [12]. Moreover, the T/C is listed as 110% with P388 [3], 109% with P388 [4], 118% in the assay with P388 [8] and 107% in the assay on P388 [9].
As for `CC(C)C(O)(C(=O)OCC1=CC[N+]2([O-])CC[C@@H](O)C12)C(C)O` (stereo in doubt; form 3), the Survivors in the assay on P388 [13], in the assay on P388 [14], in the assay with P388 [17] and with P388 [23] was 6 in each case. For the same molecule, the T/C in the assay with P388 [15] worked out at 109%; in the assay with P388 [16], 100%; in the assay with P388 [20] it was 105%; in the assay with P388 [24] it was 107%. The T-C in the assay with P388 [18] is -1.1; with P388 [19], -0.1; in the assay on P388 [21], -0.1; with P388 [22], -0.4.

In general, T/C refers to the ratio of treated to control.
